# Experimental data from the supplement of paper PMC10307832.
# Compound: C1CC(C2=C(C1)C3=C(N2)C=CC(=C3)Cl)C(=O)N [Selisistat] + Cc1nc(NC(=O)N2CCC[C@H]2C(N)=O)sc1-c1ccnc(C(C)(C)C(F)(F)F)c1 [Alpelisib] (partner 2 µM)
# Experiment: relative viability (nuclei count vs DMSO), 5 days (fraction); higher = more cells survive
# Settings: first compound 40 µM
# In short: (§1)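 For relative viability, nuclei counts in treated wells were divided by those in vehicle wells. Lung cancer cell lines had been pin-tool dosed in 1536-well plates the day after seeding and cultured for 5 days, then fixed and stained in one step (final 0.05% Triton X-100, 1% formaldehyde, 1 ug/ml Hoechst) and imaged at 4×. Doses were one drug alone or a fixed anchor-drug dose plus five library-drug doses (not always all listed) in √10 steps, and values are duplicate-plate medians.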
row,Cell Line,relative viability
1,HCC-44,0.9
2,A549,0.901
3,LU99A,0.514
4,BEN,0.884
5,HCC-78,0.278
6,NCI-H1299,1.03
7,NCI-H1563,0.773
8,ABC-1,0.921

# Compound: c1ccc2c(CCNc3ccc(Nc4ccncc4)cc3)c[nH]c2c1 [Serdemetan] + CC(=O)Nc1cccc(-n2c(=O)n(C3CC3)c(=O)c3c(Nc4ccc(I)cc4F)n(C)c(=O)c(C)c32)c1 [Trametinib] (partner 0.02 µM)
# Experiment: as above
# Settings: first compound 0.04 µM
# In short: as §1
row,Cell Line,relative viability
1,NCI-H522,0.678
2,NCI-H727,0.376
3,NCI-H1650,0.58
4,NCI-H1993,0.549
5,SW 1573,0.595
6,NCI-H838,0.47
7,LCLC-103H,0.686
8,NCI-H520,0.632
9,NCI-H2126,0.59
10,EMC-BAC-2,0.833
11,NCI-H2085,0.467
12,HCC-366,0.279
13,NCI-H1666,0.887
14,NCI-H596,0.894
15,LK-2,0.697
16,NCI-H2087,0.223

row,Cell Line,relative viability
1,NCI-H2342,0.818
2,SK-MES-1,0.48
3,H3255,0.618
4,COR-L23,0.616
5,COR-L 105,0.435
6,LOU-NH91,0.782
7,ChaGo-K-1,0.875
8,NCI-H2170,0.912
9,NCI-H2405,0.709
10,HOP-62,0.353
11,HCC-44,1.08
12,SW 900,0.636
13,LU99A,0.574
14,BEN,0.944
15,HCC-78,0.725

# Same assay, conditions: first compound 0.1265 µM
row,Cell Line,relative viability
1,NCI-H522,0.698
2,NCI-H727,0.37
3,NCI-H1650,0.633
4,NCI-H1993,0.516
5,SW 1573,0.6
6,NCI-H838,0.538
7,LCLC-103H,0.671
8,NCI-H520,0.65
9,NCI-H2126,0.557
10,EMC-BAC-2,0.889
11,NCI-H2085,0.552
12,HCC-366,0.114
13,NCI-H1666,0.854
14,NCI-H596,0.883
15,LK-2,0.79
16,NCI-H2087,0.185

row,Cell Line,relative viability
1,NCI-H2342,0.84
2,SK-MES-1,0.538
3,H3255,0.561
4,COR-L23,0.606
5,COR-L 105,0.482
6,LOU-NH91,0.798
7,ChaGo-K-1,0.805
8,NCI-H2170,0.988
9,NCI-H2405,0.655
10,HOP-62,0.319
11,HCC-44,1.05
12,SW 900,0.63
13,LU99A,0.453
14,BEN,0.853
15,NCI-H1648,0.534
16,HCC-78,0.731

# Same assay, conditions: first compound 0.4 µM
row,Cell Line,relative viability
1,NCI-H522,0.87
2,NCI-H727,0.367
3,NCI-H1650,0.49
4,NCI-H1993,0.413
5,SW 1573,0.465
6,NCI-H838,0.555
7,LCLC-103H,0.684
8,NCI-H520,0.623
9,NCI-H2126,0.577
10,EMC-BAC-2,0.886
11,NCI-H2085,0.289
12,HCC-366,0.0617
13,NCI-H1666,0.836
14,NCI-H596,0.618
15,LK-2,0.809
16,NCI-H2087,0.191
17,NCI-H2342,1.12
18,SK-MES-1,0.531
19,COR-L23,0.617
20,COR-L 105,0.366
21,ChaGo-K-1,0.602
22,NCI-H2170,0.87
23,NCI-H2405,0.64
24,HOP-62,0.343
25,HCC-44,0.968
26,SW 900,0.874
27,LU99A,0.483
28,BEN,1.06
29,NCI-H1648,0.393
30,HCC-78,0.796

# Same assay, conditions: first compound 1.265 µM
row,Cell Line,relative viability
1,NCI-H522,0.702
2,NCI-H727,0.382
3,NCI-H1650,0.611
4,NCI-H1993,0.599
5,SW 1573,0.412
6,NCI-H838,0.526
7,LCLC-103H,0.538
8,NCI-H520,0.57
9,NCI-H2126,0.512
10,EMC-BAC-2,0.754
11,NCI-H2085,0.264
12,HCC-366,0.0278
13,NCI-H596,0.526
14,LK-2,0.752
15,NCI-H2087,0.168
16,NCI-H2342,0.789
17,SK-MES-1,0.532
18,H3255,0.464
19,COR-L23,0.502
20,COR-L 105,0.487
21,ChaGo-K-1,0.266
22,NCI-H2170,0.9
23,NCI-H2405,0.587
24,HOP-62,0.314
25,HCC-44,0.964
26,SW 900,0.8
27,LU99A,0.277
28,BEN,1.03
29,NCI-H1648,0.317
30,HCC-78,0.688

# Same assay, conditions: first compound 4 µM
row,Cell Line,relative viability
1,NCI-H522,0.612
2,NCI-H727,0.33
3,NCI-H1650,0.516
4,NCI-H1993,0.494
5,SW 1573,0.256
6,NCI-H838,0.575
7,LCLC-103H,0.638
8,NCI-H520,0.428
9,NCI-H2126,0.604
10,EMC-BAC-2,0.719
11,NCI-H2085,0.301
12,HCC-366,0.0741
13,NCI-H1666,0.672
14,NCI-H596,0.517
15,LK-2,0.757
16,NCI-H2087,0.169

row,Cell Line,relative viability
1,NCI-H2342,0.669
2,SK-MES-1,0.563
3,H3255,0.516
4,COR-L23,0.449
5,COR-L 105,0.491
6,LOU-NH91,0.839
7,ChaGo-K-1,0.293
8,NCI-H2170,0.944
9,NCI-H2405,0.558
10,HOP-62,0.28
11,HCC-44,0.837
12,SW 900,0.519
13,LU99A,0.224
14,BEN,0.794
15,NCI-H1648,0.296
16,HCC-78,0.552

# Compound: c1ccc2c(CCNc3ccc(Nc4ccncc4)cc3)c[nH]c2c1 [Serdemetan] + CCNC(=O)c1noc(-c2cc(C(C)C)c(O)cc2O)c1-c1ccc(CN2CCOCC2)cc1 [Luminespib] (partner 0.01 µM)
# Experiment: as above
# Settings: first compound 0.04 µM
# In short: as §1
row,Cell Line,relative viability
1,NCI-H522,1.15
2,NCI-H1623,0.498
3,NCI-H727,0.319
4,NCI-H1650,0.212
5,NCI-H1993,0.981
6,SW 1573,0.343
7,NCI-H838,0.266
8,LCLC-103H,0.971
9,NCI-H520,0.255
10,NCI-H2126,0.983
11,EMC-BAC-2,1.14
12,NCI-H2085,0.454
13,NCI-H1666,1.01
14,NCI-H596,1.02
15,LK-2,0.18
16,NCI-H2087,0.176

row,Cell Line,relative viability
1,NCI-H2342,0.738
2,SK-MES-1,0.789
3,H3255,0.913
4,COR-L23,0.724
5,COR-L 105,1.3
6,LOU-NH91,0.282
7,ChaGo-K-1,0.688
8,NCI-H2170,0.643
9,NCI-H2405,0.716
10,HOP-62,0.758
11,HCC-44,0.894
12,SW 900,0.185
13,LU99A,0.26
14,BEN,0.24
15,NCI-H1563,0.499
16,ABC-1,0.581

# Same assay, conditions: first compound 0.1265 µM
row,Cell Line,relative viability
1,NCI-H522,1.42
2,NCI-H1623,0.481
3,NCI-H727,0.481
4,NCI-H1650,0.213
5,NCI-H1993,0.778
6,SW 1573,0.161
7,NCI-H838,0.319
8,LCLC-103H,1.03
9,NCI-H520,0.204
10,NCI-H2126,0.964
11,EMC-BAC-2,1.12
12,NCI-H2085,0.394
13,NCI-H1666,0.992
14,NCI-H596,0.955
15,LK-2,0.172
16,NCI-H2087,0.147

row,Cell Line,relative viability
1,NCI-H2342,0.722
2,SK-MES-1,0.731
3,H3255,1.02
4,COR-L23,0.639
5,COR-L 105,0.911
6,LOU-NH91,0.334
7,ChaGo-K-1,0.463
8,NCI-H2170,0.596
9,NCI-H2405,0.664
10,HOP-62,0.915
11,HCC-44,1.08
12,SW 900,0.168
13,LU99A,0.259
14,BEN,0.2
15,NCI-H1563,0.481
16,ABC-1,0.648

# Same assay, conditions: first compound 0.4 µM
row,Cell Line,relative viability
1,NCI-H522,1.25
2,NCI-H1623,0.432
3,NCI-H727,0.288
4,NCI-H1650,0.205
5,NCI-H1993,0.811
6,SW 1573,0.215
7,NCI-H838,0.383
8,LCLC-103H,1
9,NCI-H520,0.232
10,NCI-H2126,0.9
11,EMC-BAC-2,1.13
12,NCI-H2085,0.457
13,NCI-H1666,1.05
14,NCI-H596,0.861
15,LK-2,0.191
16,NCI-H2087,0.168

row,Cell Line,relative viability
1,NCI-H2342,0.704
2,SK-MES-1,0.799
3,H3255,0.783
4,COR-L23,0.644
5,COR-L 105,0.64
6,LOU-NH91,0.347
7,ChaGo-K-1,0.445
8,NCI-H2170,0.807
9,NCI-H2405,0.64
10,HOP-62,0.848
11,HCC-44,1.01
12,SW 900,0.196
13,LU99A,0.185
14,BEN,0.461
15,NCI-H1563,0.555
16,ABC-1,0.515

# Same assay, conditions: first compound 1.265 µM
row,Cell Line,relative viability
1,NCI-H522,0.873
2,NCI-H1623,0.551
3,NCI-H727,0.265
4,NCI-H1650,0.177
5,NCI-H1993,0.768
6,SW 1573,0.113
7,NCI-H838,0.2
8,LCLC-103H,0.975
9,NCI-H2126,0.88
10,EMC-BAC-2,0.616
11,NCI-H2085,0.382
12,NCI-H1666,0.869
13,NCI-H596,0.59
14,LK-2,0.161
15,NCI-H2087,0.184
16,NCI-H2342,0.508
17,SK-MES-1,0.617
18,H3255,0.994
19,COR-L23,0.631
20,COR-L 105,0.693
21,LOU-NH91,0.296
22,ChaGo-K-1,0.27
23,NCI-H2170,0.459
24,NCI-H2405,0.573
25,HOP-62,0.666
26,HCC-44,0.906
27,SW 900,0.164
28,LU99A,0.182
29,NCI-H1563,0.458
30,ABC-1,0.567

# Same assay, conditions: first compound 4 µM
row,Cell Line,relative viability
1,NCI-H522,1.45
2,NCI-H1623,0.427
3,NCI-H727,0.385
4,NCI-H1650,0.184
5,NCI-H1993,0.758
6,SW 1573,0.192
7,NCI-H838,0.328
8,LCLC-103H,0.751
9,NCI-H520,0.205
10,NCI-H2126,1.01
11,EMC-BAC-2,0.636
12,NCI-H2085,0.354
13,NCI-H1666,0.811
14,NCI-H596,0.602
15,LK-2,0.2
16,NCI-H2087,0.123

row,Cell Line,relative viability
1,NCI-H2342,0.506
2,SK-MES-1,0.772
3,H3255,0.669
4,COR-L23,0.432
5,COR-L 105,0.588
6,LOU-NH91,0.299
7,ChaGo-K-1,0.227
8,NCI-H2170,0.56
9,NCI-H2405,0.596
10,HOP-62,0.596
11,HCC-44,0.901
12,SW 900,0.176
13,LU99A,0.193
14,BEN,0.329
15,NCI-H1563,0.436
16,ABC-1,0.516
